In ChEMBL document CHEMBL4476885, “Multisubstituted 4h-thiazolo[4,5-e][1,4]diazepine-5,8-dione derivative and use thereof” (2017):

Tested on: Mus musculus
Assay: Antiinflammatory activity in iv dosed ICR mouse model of CLP-induced sepsis assessed as increase in survival rate
Type: functional

Row | SMILES | Activity [%]
1 | CCCCNc1nc2c(s1)C(=O)N(Cc1ccccc1)CC(=O)N2 | 40
2 | CCN1C(=O)C2CCCN2C(=O)c2sc(NCc3ccc(OC)cc3)nc21 (stereo not drawn) | 40
3 | O=C1C2CCCN2C(=O)c2sc(N3CCCCC3)nc2N1Cc1ccccc1 (stereo not drawn) | 40
4 | COc1ccc(CNc2nc3c(s2)C(=O)N2CCCC2C(=O)N3)cc1 (stereo not drawn) | 40
5 | O=C1Nc2nc(N3CCOCC3)sc2C(=O)N2CCCC12 (stereo not drawn) | 40
6 | COc1ccc(CNc2nc3c(s2)C(=O)N(C)CC(=O)N3Cc2ccccc2)cc1 | 40
7 | CN1C(=O)C2CCCCN2C(=O)c2sc(Sc3ccccc3)nc21 (stereo not drawn) | 60
8 | CCCSc1nc2c(s1)C(=O)N1CCCCC1C(=O)N2 (stereo not drawn) | 40
